The text below walks through data of patent US4816447A, “Anti-viral guanine compounds” (priority 1984, dated 1989).

Each structure is given as a SMILES string.

For this test, the system named is HSV-1. Description: Intracerebral HSV-1 infection in weanling mice, subcutaneous treatment (Table VI). The format is in vivo, HSV-1; ICR/Ha weanling mice.

As to `Nc1nc2c(ncn2COC2COP(=O)(O)OC2)c(=O)[nH]1` (centres unmarked) [Cyclic Monophosphate, Potassium 9-(1,3-dihydroxy-2-propoxymethyl)guanine cyclic monophosphate], the minimal effective dose (Human alphaherpesvirus 1, sc, intracerebral infection, subcutaneous treatment, read-out: Min. Effective Dose) was found to be 0.8 mg/kg/day. Besides, under “intracerebral”, the “efficacy relative to acyclovir by minimum effective dose” value is recorded as “consistently more efficacious than acyclovir”.
